Test results: PubChem BioAssay (NCI)
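Briefly, cells in 96-well plates were exposed to five compound concentrations for 48 h, and endpoints were estimated by linear interpolation. Definition used: TGI = concentration required for complete inhibition of growth.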

Key:
Assay in all cases: DTP human tumour cell line panel, 48 h
OVCAR-8 ovarian = tested on: OVCAR-8 ovarian
OVCAR-4 ovarian = tested on: OVCAR-4 ovarian
MALME-3M melanoma = tested on: MALME-3M melanoma
UACC-257 melanoma = tested on: UACC-257 melanoma
LOX IMVI melanoma = tested on: LOX IMVI melanoma
SK-MEL-5 melanoma = tested on: SK-MEL-5 melanoma
NCI/ADR-RES ovarian = tested on: NCI/ADR-RES ovarian
A498 renal = tested on: A498 renal
A549 NSCLC = tested on: A549 NSCLC
SNB-19 CNS = tested on: SNB-19 CNS
DU-145 prostate = tested on: DU-145 prostate
ACHN renal = tested on: ACHN renal
HCC-2998 colon = tested on: HCC-2998 colon
HCT-116 colon = tested on: HCT-116 colon
M14 melanoma = tested on: M14 melanoma
MCF7 breast = tested on: MCF7 breast
HCT-15 colon = tested on: HCT-15 colon
K-562 leukemia = tested on: K-562 leukemia
SF-268 CNS = tested on: SF-268 CNS
BT-549 breast = tested on: BT-549 breast
HOP-92 NSCLC = tested on: HOP-92 NSCLC
RXF 393 renal = tested on: RXF 393 renal
IGROV1 ovarian = tested on: IGROV1 ovarian
MDA-MB-435 = tested on: MDA-MB-435
RPMI-8226 leukemia = tested on: RPMI-8226 leukemia
SW-620 colon = tested on: SW-620 colon
UO-31 renal = tested on: UO-31 renal
NCI-H460 lung = tested on: NCI-H460 lung
SF-539 CNS = tested on: SF-539 CNS
SN12C renal = tested on: SN12C renal
TK-10 renal = tested on: TK-10 renal
HL-60(TB) leukemia = tested on: HL-60(TB) leukemia
SK-MEL-2 melanoma = tested on: SK-MEL-2 melanoma
OVCAR-5 ovarian = tested on: OVCAR-5 ovarian
NCI-H522 lung = tested on: NCI-H522 lung
T-47D breast = tested on: T-47D breast
NCI-H226 lung = tested on: NCI-H226 lung
COLO 205 colon = tested on: COLO 205 colon
HS 578T breast = tested on: HS 578T breast
SR leukemia = tested on: SR leukemia
MOLT-4 leukemia = tested on: MOLT-4 leukemia
CCRF-CEM leukemia = tested on: CCRF-CEM leukemia
SNB-75 CNS = tested on: SNB-75 CNS
SF-295 CNS = tested on: SF-295 CNS
HOP-62 NSCLC = tested on: HOP-62 NSCLC
MDA-N = tested on: MDA-N
HT29 colon = tested on: HT29 colon
MDA-MB-231 breast = tested on: MDA-MB-231 breast
KM12 colon = tested on: KM12 colon
786-0 renal = tested on: 786-0 renal
EKVX NSCLC = tested on: EKVX NSCLC
UACC-62 melanoma = tested on: UACC-62 melanoma
SK-OV-3 ovarian = tested on: SK-OV-3 ovarian
U251 CNS = tested on: U251 CNS
SK-MEL-28 melanoma = tested on: SK-MEL-28 melanoma
NCI-H23 lung = tested on: NCI-H23 lung
OVCAR-3 ovarian = tested on: OVCAR-3 ovarian
PC-3 prostate = tested on: PC-3 prostate

Measured: TGI

O=C(O)C1(Cc2ccc3c(c2)CCC3)Cc2ccccc2C1
> 100 µM: all assays above
